# Results published in US20210401782A1, “COMPOSITION FOR PREVENTING AND TREATMENT OF STROKE” (NEUROBIOGEN CO.,LTD, priority 2018, published 2021).
# Columns and labels:
# Type in all cases: in vivo, SD rat
# [1] = system: rodent stroke model; experiment: single-pellet reaching task (SPRT) in rodent stroke model; conditions: Stroke+rehab+KDS2010: 10 mg/kg orally once a day plus rehabilitation training; white-matter cerebral infarction rat model
# Protocol: (§1) Light stimuli was applied to the posterior limb of the internal capsule of a 9 week-old SD rat to produce a white-matter cerebral infarction animal model.
# (§2) Specifically, the animal was anesthetized with an anesthetic drug, a combination of ketamine (ketamine hydrochloride, 100 mg/kg) and xylazine (7 mg/kg), and a hole was drilled at a position of 2.0 mm rearwards and 3.1 mm laterally outwards from the skull bregma using stereotaxis, and an optical fiber (inner diameter of 62.5 μm, outer diameter of 125 μm) was inserted to a depth of 7.2 mm to target the posterior limb of the internal capsule. Rose bengal (20 mg/kg) was injected into the tail vein, and optical stimulation was conducted using a 3.7 mW green laser for 1.5 minutes through an optical fiber. Then, the optical fiber was removed and the operation was completed, ketoprofen (2 mg/kg) was injected for pain control, and then the animal was allowed to recover. The control group was injected with 0.9% saline, instead of rose bengal. […]
# For the single-pellet reaching task, an acrylic box (45 cm×13 cm×40 cm) having a 1 cm vertical slit on the front wall thereof was used, and a sugar pellet was placed in front of the slit. […] The proportion of the number of pellets remaining in the mouth, without dropping, to 20 pellets in total was calculated.
# [2] = system: rodent stroke model; experiment: cylinder test in rodent stroke model; conditions: Stroke+KDS2010: 10 mg/kg orally once a day, no rehabilitation; compared to the control group
# Protocol: as §1, §2
# For the cylinder test, animals were placed in a transparent cylinder (20 cm in diameter and 30 cm in height) to observe which limb was used more when supporting the cylinder wall with the forelimbs. A total of 20 movements were recorded, and the ratio of the use of the forelimb corresponding to the stroke and the opposite forelimb was calculated during the total number of cycles.
# [3] = system: rodent stroke model; experiment: neurofiber staining, size of the infarction in an internal capsule; conditions: 10 mg/kg orally once a day
# Protocol: as §1
# Specifically, the animal was anesthetized with an anesthetic drug, a combination of ketamine (ketamine hydrochloride, 100 mg/kg) and xylazine (7 mg/kg), and a hole was drilled at a position of 2.0 mm rearwards and 3.1 mm laterally outwards from the skull bregma using stereotaxis, and an optical fiber (inner diameter of 62.5 μm, outer diameter of 125 μm) was inserted to a depth of 7.2 mm to target the posterior limb of the internal capsule. Rose bengal (20 mg/kg) was injected into the tail vein, and optical stimulation was conducted using a 3.7 mW green laser for 1.5 minutes through an optical fiber. Then, the optical fiber was removed and the operation was completed, ketoprofen (2 mg/kg) was injected for pain control, and then the animal was allowed to recover. The control group was injected with 0.9% saline, instead of rose bengal.
# Rats in the group administered with KDS2010 as a drug were orally administered with a solution of KDS2010 in saline at a concentration of 10 mg/kg once a day (FIG. 2A).
# Rats in the rehabilitation-trained group practiced a single-pellet reaching task (SPRT) for 20 minutes daily for 3 weeks after stroke surgery. […]
compound,measurement,setting,value
"C[C@H](NCc1ccc(-c2ccc(C(F)(F)F)cc2)cc1)C(N)=O [KDS2010, (S)-2-(((4′-trifluoromethylbiphenyl-4-yl)methyl)amino)propanamide methanesulfonate]",motor function through single-pellet reaching task,[1],recovered motor function to an almost normal level
same,motor function using the cylinder test,[2],significantly recovered motor function
same,size of the infarction in the internal capsules,"[3]; Stroke+KDS: drug-administered group, no rehabilitation, versus control group",considerably larger size of the infarction
same,size of the infarction in the internal capsules,[3]; Stroke+rehab+KDS: rehabilitation training in combination with drug administration,further reduced infarction sizes
